Test results published in patent US20160310454A1, “LIVER X RECEPTOR AGONISTS IN THE TREATMENT OF EMPHYSEMA” (priority 2013, published 2016).
“Also recorded” adds a separate entry of the source.

How the values were obtained:
[1] = test system: mice exposed to cigarette smoke for 10 days; assay: Acute 10 day cigarette smoke exposure model with LXR agonist IP; assay type: in vivo, mouse
Procedure: Mice were chronically exposed to smoke in a specially designed chamber (Teague Enterprise, CA). 8 weeks old mice were smoke-exposed for 5 hours a day, 5 days a week for 10 days and 5 months. The total particulate matter (TPM) within the smoking chamber was regulated so that the mice receive a TPM of 100 mg/m^3. TPM was determined by a gravimetric analysis of filter samples taken during the exposure period. Mice (C57BL/6, AKR/J strain) were smoke exposed for 10 days and 5 months and compared to room air exposed controls.
The BAL fluid was collected by perfusing the lungs with 2 ml of phosphate buffered saline (PBS). The samples were then centrifuged to pellet down the cells and re-suspended in 300 μl of PBS. To obtain the total cell count, cells were counted using a hematocytometer for which, 10 μl of the sample was utilized. To obtain the differential cell count, the slides were prepared using a cytopsin. 150 μl of sample was taken to prepare slides. These slides were stained using Hematoxylin and Eosin (H&E) and a number of regular and foamy like macrophages and lymphocytes counted under the microscope. A foamy like phenotype (Hirama et al., 2007) was identified by examining the sequential increase in macrophage size. Lipid staining was not performed.
Total RNA was extracted from specimens of lung tissue 0.3 cm^3 in size with the use of the RNeasy kit (Qiagen, Germantown, Md.) (Goldklang et al., 2012). The RNA was then further processed to obtain cDNA, which was used for Real Time (RT) PCR analysis. TaqMan gene expression assays (Applied Biosystems, Carlsbad, Calif.) were performed to assess gene-transcript levels with the use of an ABI Prism 7900HT Sequence Detection System (Applera, Foster City, Calif.) (Goldklang et al., 2012). The following primers were used to check the respective gene expression: ABCA1 (Hs01059118_m1), ABCG1 (Hs00245154_m1), MMP-9 (Mm00442991_m1), IL-1β (Mm00434227_g1), TNF-α (Mm00443260_g1) and GAPDH (4352932E) from TaqMan Gene Expression Assays, Applied Biosystems, CA. β-actin was used as a control since it is a housekeeping gene.
To determine if the mechanisms identified in vitro contributed to changes in smoke induced lung inflammation in vivo, cigarette smoke studies were performed in mice. The treatment of mice exposed to cigarette smoke in an acute 10 day model with 25 mg/kg of intraperitoneal (IP) injections of an LXR agonist daily during the last 4 days of exposure was examined. […] Treatment with the LXR agonist was capable of blocking the already established inflammation and decreased the total inflammatory cell counts (FIG. 15A.). Furthermore, the cigarette smoke induced TNFα protein expression in the BAL was abrogated in mice treated with the LXR agonist (FIG. 15B.). […] Most importantly, cigarette smoke induced MMP-9 expression and activity in the BAL were inhibited by the treatment with the LXR agonist (FIG. 15C-D.), which correlated with inhibition of inflammation and the inflammatory driven increase in TNFα.

[2] = test system: macrophage specific ABCA1 KO (ABCA1 Cre-LysM) macrophages treated with 5% CSE; assay: ABCA1 KO (ABCA1 Cre-LysM) mouse macrophages treated with 5% CSE with or without LXR agonist; assay type: cell-based
Procedure: FIG. 14. Effect of LXR dependent ABCA1 reexpression on cigarette smoke induced pro-inflammatory and MMP signaling pathways in macrophages. (A.) Western Blot analysis of JNK phosphorylation (oxidative stress activated MAP kinase), (B.) mRNA expression analysis of TLR4/Myd88 in mouse macrophages treated with 5% CSE with or without LXR agonist (T0901317-Cayman) in 3 μM concentration. (C-E.) mRNA expression analysis of inflammatory cytokines TNFα (C.), IL-1β (D.) and IL-10 (E.) mouse macrophages isolated from bone marrow of WT (ABCA1 fl/fl mice) and macrophage specific ABCA1 KO (ABCA1 Cre-LysM) treated with 5% CSE with or without LXR agonist (T0901317-Cayman) in 3 μM concentration. (F-H.) Analysis of MMP activation mouse macrophages isolated from bone marrow of WT (ABCA1 fl/fl mice) and macrophage specific ABCA1 KO (ABCA1 Cre-LysM) treated with 5% CSE with or without LXR agonist (T0901317-Cayman) in 3 μM concentration. MMP-9 and -13 mRNA expression (F.), MMP-9 mRNA expression with LXR agonist treatment, (H.) MMP-9 activity assayed by gelatin zymography. β-Actin was used as a housekeeping gene control for RT-PCR. Values are presented as statistically significant when *p<0.05, **p<0.01, ***p<0.001 when compared to controls and #p<0.05 compared to 5% CSE.
In these experiments both mouse peritoneal and mouse bone marrow derived macrophages (BMdM) were utilized. Mouse peritoneal macrophages were isolated from peritoneal cavities of 3% thioglycolate injected mice on the 5th day from injection. To compare expression of genes in vitro and in vivo peritoneal macrophages were isolated from mice exposed to room air and cigarette smoke. For in vitro analysis cells were seeded on culture plates for 24 h and then treated with CSE. For in vivo analysis cells were collected from peritoneal cavity and mRNA was directly isolated. […] The obtained cells were then counted (usually 100-150 million cells per mouse) and centrifuged for 5 min at 2600 rpm. […] Approximately after 7-10 days of plating the cells become fully differentiated into macrophages and were ready for subsequent experiments. […]

[3] = 25 mg/kg IP, 10 days smoke exposure, Luminex
[4] = 25 mg/kg IP, 10 days smoke exposure, listed as LXR agonist

O=S(=O)(c1ccccc1)N(CC(F)(F)F)c1ccc(C(O)(C(F)(F)F)C(F)(F)F)cc1 [T0901317, N-(2,2,2-trifluoroethyl)-N-[4-[2,2,2-trifluoro-1-hydroxy-1-(trifluoromethyl)ethyl]phenyl]-benzenesulfonamide]
level of ABCA1 in BAL (alveolar macrophages) ([1]; 25 mg/kg IP daily, last 4 days of 10 day smoke exposure, listed as LXR agonist): re-expression; also recorded: successfully increased
pulmonary inflammation: total inflammatory cell counts in BAL ([1]; 25 mg/kg IP, 10 days smoke exposure): resolve
cigarette smoke induced TNFα protein expression in the BAL [1, 3]: abrogated
smoke induced increase in IL-1β, IL-17, IFNγ and MCP-1 in the lung tissue [1, 3]: inhibited
cigarette smoke induced MMP-9 expression and activity in the BAL [1, 4]: inhibition; also recorded: inhibited
mRNA levels of TNFα in BAL alveolar macrophages [1, 4]: inhibition; also recorded: decreased
pulmonary inflammation: total inflammatory cell counts in BAL [1, 4]: significantly blocked; also recorded: decreased
decrease in MMP-9 activity and expression, MMP-13 expression and TNFα expression ([2]; ABCA1 KO macrophages): not observed
reversal of induction of cytokines by 5% CSE ([2]; ABCA1 macrophage knockout, LXR agonist 3 μM): not able to reverse
reduction of mRNA and activity of MMP-9: dependence on ABCA1 ([2]; WT versus ABCA1 KO macrophages, 5% CSE, LXR agonist 3 μM): only in the presence of the ABCA1 transporter
